Test results as given in patent US10045974B2, “2-amino-6-(difluoromethyl)-5,5-difluoro-6-phenyl-3,4,5,6-tetrahydropyridines as BACE1 inhibitors” (H. Lundbeck A/S, priority 2014, dated 2018).

Target: BACE1 (Homo sapiens (Human), UniProt P56817)
Experiment: BACE1 efficacy assay (FRET-based, commercial BACE1 kit)
Type: biochemical
Settings: test compound 10 μM
Protocol: The efficacy assay was performed as a FRET-based assay using a commercially available BACE1 kit (Life Technologies, P2985). 2 μl test compound at 10 μM (final concentration) and 15 μl BACE1 enzyme from the kit (final concentration 3 nM) were preincubated for 15 minutes at room temperature before addition of 15 μl of substrate from the kit (250 nM final concentration) and incubated for additional 90 minutes at room temperature. The assay plate was subsequently read in a Pherastar (Ex540/Em590). The enzyme activity observed in presence of test compound were normalized to the enzyme activity observed in presence of buffer and 10 μM (final concentration) of the high affinity BACE1 reference inhibitor (S)-6-[3-Chloro-5-(5-prop-1-ynyl-pyridin-3-yl)-thiophen-2-yl] -2-imino-3,6-dimethyl-tetra-hydropyrimidin-4-one, respectively. The efficacy of the test compounds was evaluated at 10 μM (final concentration) and defined as the percent inhibition of the enzyme activity using the equation %inhibition=100% -normalized enzyme activity in percent.

BACE1, sequence (P56817 46-501): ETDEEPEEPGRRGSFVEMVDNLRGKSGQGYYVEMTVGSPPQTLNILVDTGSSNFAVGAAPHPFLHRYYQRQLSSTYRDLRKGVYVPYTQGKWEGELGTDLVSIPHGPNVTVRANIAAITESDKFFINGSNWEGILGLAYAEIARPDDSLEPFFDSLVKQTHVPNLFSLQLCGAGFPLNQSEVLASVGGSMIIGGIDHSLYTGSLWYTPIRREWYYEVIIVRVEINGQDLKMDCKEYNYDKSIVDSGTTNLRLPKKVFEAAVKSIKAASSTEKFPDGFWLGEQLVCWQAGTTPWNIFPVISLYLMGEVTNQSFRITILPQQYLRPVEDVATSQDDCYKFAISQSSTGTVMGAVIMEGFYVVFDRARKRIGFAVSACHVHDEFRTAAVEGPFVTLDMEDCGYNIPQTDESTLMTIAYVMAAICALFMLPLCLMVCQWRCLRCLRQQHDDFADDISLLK

| Structure (SMILES) | inhibition at 10 µM |
| --- | --- |
| [2H]C([2H])([2H])Oc1cnc(C(=O)Nc2ccc(F)c([C@@]3(C(F)F)N=C(N)CCC3(F)F)c2)cn1 [Compound 14, (S)-N-(3-(6-amino-2-(difluoromethyl)-3,3-difluoro-2,3,4,5-tetrahydropyridin-2-yl)-4-fluorophenyl)-5-(methoxy-d3)pyrazine-2-carboxamide] | 108% |
| Cc1nc(C(=O)Nc2ccc(F)c([C@@]3(C(F)F)N=C(N)CCC3(F)F)c2)co1 [Compound 4, (S)-N-(3-(6-amino-2-(difluoromethyl)-3,3-difluoro-2,3,4,5-tetrahydropyridin-2-yl)-4-fluorophenyl)-2-methyloxazole-4-carboxamide] | 104% |
| [2H]C([2H])([2H])Oc1ccc(C(=O)Nc2ccc(F)c([C@@]3(C(F)F)N=C(N)CCC3(F)F)c2)nc1 [Compound 13, (S)-N-(3-(6-amino-2-(difluoromethyl)-3,3-difluoro-2,3,4,5-tetrahydropyridin-2-yl)-4-fluorophenyl)-5-(methoxy-d3)picolinamide] | 103% |
| NC1=N[C@@](c2cc(NC(=O)c3ccc(F)cn3)ccc2F)(C(F)F)C(F)(F)CC1 [Compound 2, (S)-N-(3-(6-amino-2-(difluoromethyl)-3,3-difluoro-2,3,4,5-tetrahydropyridin-2-yl)-4-fluorophenyl)-5-fluoropicolinamide] | 100% |
| COc1cnc(C(=O)Nc2ccc(F)c([C@@]3(C(F)F)N=C(N)CCC3(F)F)c2)nc1 [Compound 9, (S)-N-(3-(6-amino-2-(difluoromethyl)-3,3-difluoro-2,3,4,5-tetrahydropyridin-2-yl)-4-fluorophenyl)-5-methoxypyrimidine-2-carboxamide] | 103% |
| Cc1csc(C(=O)Nc2ccc(F)c([C@@]3(C(F)F)N=C(N)CCC3(F)F)c2)n1 [Compound 8, (S)-N-(3-(6-amino-2-(difluoromethyl)-3,3-difluoro-2,3,4,5-tetrahydropyridin-2-yl)-4-fluoro-phenyl)-4-methylthiazole-2-carboxamide] | 102% |
| COc1ccc(C(=O)Nc2ccc(F)c([C@@]3(C(F)F)N=C(N)CCC3(F)F)c2)nc1 [Compound 5, (S)-N-(3-(6-amino-2-(difluoromethyl)-3,3-difluoro-2,3,4,5-tetrahydropyridin-2-yl)-4-fluorophenyl)-5-methoxypicolinamide] | 101% |
| COc1cnc(C(=O)Nc2ccc(F)c([C@@]3(C(F)F)N=C(N)CCC3(F)F)c2)c(C)n1 [Compound 10, (S)-N-(3-(6-amino-2-(difluoromethyl)-3,3-difluoro-2,3,4,5-tetrahydropyridin-2-yl)-4-fluorophenyl)-5-methoxy-3-methylpyrazine-2-carboxamide] | 106% |
| NC1=N[C@@](c2cc(NC(=O)c3cnc(C(F)F)cn3)ccc2F)(C(F)F)C(F)(F)CC1 [Compound 6, (S)-N-(3-(6-amino-2-(difluoromethyl)-3,3-difluoro-2,3 ,4,5-tetrahydropyridin-2-yl)-4-fluorophenyl)-5-(difluoromethyl)pyrazine-2-carboxamide] | 103% |
| NC1=N[C@@](c2cc(NC(=O)c3ccc(Cl)cn3)ccc2F)(C(F)F)C(F)(F)CC1 [Compound 1, (S)-N-(3-(6-amino-2-(difluoromethyl)-3,3-difluoro-2,3,4,5-tetrahydropyridin-2-yl)-4-fluorophenyl)-5-chloropicolinamide] | 106% |
| COc1cnc(C(=O)Nc2ccc(F)c([C@@]3(C(F)F)N=C(N)CCC3(F)F)c2)cn1 [Compound 3] | 103% |
